Literature values as cited in patent publication US8349353B2, “Controlled release cytotoxic agent compositions and methods for the treatment of otic disorders” (Otonomy, Inc., priority 2008, dated 2013).

Tested on: V2-R
Settings: infusion into the scala tympani

**Q.** With Cc1ccccc1C(=O)Nc1ccc(C(=O)N2CCCC(N(C)C)c3ccccc32)cc1 (stereo not shown) [OPC-31260] as the compound, how does the “Meniere's disease symptoms” value read?
**A.** marked reduction of Meniere's disease symptoms
